Biological target: T1, human PAH with the R408W mutation (Homo sapiens, UniProt P00439, R408W)
T1 construct: expressed in transfected cells
T1 sequence (P00439 1-452 R408W): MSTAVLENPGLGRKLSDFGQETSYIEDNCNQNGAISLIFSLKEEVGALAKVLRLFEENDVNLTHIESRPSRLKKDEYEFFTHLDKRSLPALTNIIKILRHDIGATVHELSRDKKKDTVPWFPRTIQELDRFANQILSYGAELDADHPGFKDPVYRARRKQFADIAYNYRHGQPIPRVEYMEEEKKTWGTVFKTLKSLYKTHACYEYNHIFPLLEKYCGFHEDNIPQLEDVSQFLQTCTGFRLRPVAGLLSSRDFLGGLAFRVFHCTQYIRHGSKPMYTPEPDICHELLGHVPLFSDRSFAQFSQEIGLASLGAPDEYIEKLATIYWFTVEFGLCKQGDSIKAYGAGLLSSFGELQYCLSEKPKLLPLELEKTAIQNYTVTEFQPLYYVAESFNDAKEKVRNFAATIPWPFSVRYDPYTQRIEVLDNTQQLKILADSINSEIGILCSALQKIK
Test: Cell Based Phenylalanine Flux Assay
Details: A375 cells expressing human R408W PAH; 24 hrs compound incubation; 13C-Tyrosine by LC-MS; average where tested multiple times; read-out: AC50

| Structure (SMILES) | AC50 |
| --- | --- |
| O=C(c1cnn2cc(CN3CCC(F)(F)C3)ccc12)N1CCc2[nH]cnc2[C@H]1c1nc2ccccc2s1 [Example 1313] | 500 to 1000 nM |
| O=C(c1cnn2cc(CN3CCC(F)(F)C3)ccc12)N1CCc2[nH]cnc2[C@@H]1c1nc2ccccc2s1 [Example 1314, (R)-(4-(benzo[d]thiazol-2-yl)-6,7-dihydro-1H-imidazo[4,5-c]pyridin-5(4H)-yl)(6-((3,3-difluoropyrrolidin-1-yl)methyl)pyrazolo[1,5-a]pyridin-3-yl)methanone] | > 5000 nM |
| O=C(c1cnc(-c2ccccn2)o1)N1CCc2[nH]cnc2[C@H]1c1nc2ccccc2s1 [Example 1317] | < 500 nM |
| O=C(c1cnc(-c2ccccn2)o1)N1CCc2[nH]cnc2[C@@H]1c1nc2ccccc2s1 [Example 1318, (R)-(4-(benzo[d]thiazol-2-yl)-6,7-dihydro-1H-imidazo[4,5-c]pyridin-5(4H)-yl)(2-(pyridin-2-yl)oxazol-5-yl)methanone] | 1000 to 5000 nM |
| Cc1nc(C)c(C(=O)N2CCc3[nH]cnc3[C@H]2c2nc3c(F)cccc3s2)o1 [Example 1321] | < 500 nM |
| Cc1nc(C)c(C(=O)N2CCc3[nH]cnc3[C@@H]2c2nc3c(F)cccc3s2)o1 [Example 1322, (R)-(2,4-dimethyloxazol-5-yl)(4-(4-fluorobenzo[d]thiazol-2-yl)-6,7-dihydro-1H-imidazo[4,5-c]pyridin-5(4H)-yl)methanone] | > 5000 nM |
| O=C(c1cnc(C2CC2)o1)N1CCc2[nH]cnc2[C@H]1c1nc2c(F)cccc2s1 [Example 1329] | < 500 nM |
| O=C(c1cnc(C2CC2)o1)N1CCc2[nH]cnc2[C@@H]1c1nc2c(F)cccc2s1 [Example 1330, (R)-(2-cyclopropyloxazol-5-yl)(4-(4-fluorobenzo[d]thiazol-2-yl)-6,7-dihydro-1H-imidazo[4,5-c]pyridin-5(4H)-yl)methanone] | 1000 to 5000 nM |
| O=C(c1cnn2cc(F)ccc12)N1CCc2[nH]cnc2[C@H]1c1nc2cc(F)ccc2s1 [Example 1333, (S)-(4-(5-fluorobenzo[d]thiazol-2-yl)-6,7-dihydro-1H-imidazo[4,5-c]pyridin-5(4H)-yl)(6-fluoropyrazolo[1,5-a]pyridin-3-yl)methanone] | 500 to 1000 nM |
| O=C(c1cnn2cc(F)ccc12)N1CCc2[nH]cnc2[C@@H]1c1nc2cc(F)ccc2s1 [Example 1334, (R)-(4-(5-fluorobenzo[d]thiazol-2-yl)-6,7-dihydro-1H-imidazo[4,5-c]pyridin-5(4H)-yl)(6-fluoropyrazolo[1,5-a]pyridin-3-yl)methanone] | > 5000 nM |
| O=C(c1cnc(-c2ccc(F)cn2)o1)N1CCc2[nH]cnc2[C@H]1c1nc2ccccc2s1 [Example 1337] | < 500 nM |
| O=C(c1cnc(-c2ccc(F)cn2)o1)N1CCc2[nH]cnc2[C@@H]1c1nc2ccccc2s1 [Example 1338, (R)-(4-(benzo[d]thiazol-2-yl)-6,7-dihydro-1H-imidazo[4,5-c]pyridin-5(4H)-yl)(2-(5-fluoropyridin-2-yl)oxazol-5-yl)methanone] | 1000 to 5000 nM |
| O=C(c1cnc(-c2ccc(F)cn2)s1)N1CCc2[nH]cnc2[C@H]1c1nc2ccccc2s1 [Example 1339] | < 500 nM |
| O=C(c1cnc(-c2ccc(F)cn2)s1)N1CCc2[nH]cnc2[C@@H]1c1nc2ccccc2s1 [Example 1340, (R)-(4-(benzo[d]thiazol-2-yl)-6,7-dihydro-1H-imidazo[4,5-c]pyridin-5(4H)-yl)(2-(5-fluoropyridin-2-yl)thiazol-5-yl)methanone] | 1000 to 5000 nM |
| Cn1cc(-c2ncc(C(=O)N3CCc4[nH]cnc4[C@@H]3c3nc4ccccc4s3)o2)cn1 [Example 1343, (R)-(4-(benzo[d]thiazol-2-yl)-6,7-dihydro-1H-imidazo[4,5-c]pyridin-5(4H)-yl)(2-(1-methyl-1H-pyrazol-4-yl)oxazol-5-yl)methanone] | 1000 to 5000 nM |
| Cn1cc(-c2ncc(C(=O)N3CCc4[nH]cnc4[C@H]3c3nc4ccccc4s3)o2)cn1 [Example 1344] | 500 to 1000 nM |
| Cn1cc(-c2ncc(C(=O)N3CCc4[nH]cnc4[C@@H]3c3nc4c(F)cccc4s3)o2)cn1 [Example 1345, (R)-(4-(4-fluorobenzo[d]thiazol-2-yl)-6,7-dihydro-1H-imidazo[4,5-c]pyridin-5(4H)-yl)(2-(1-methyl-1H-pyrazol-4-yl)oxazol-5-yl)methanone] | 1000 to 5000 nM |
| Cn1cc(-c2ncc(C(=O)N3CCc4[nH]cnc4[C@H]3c3nc4c(F)cccc4s3)o2)cn1 [Example 1346, (S)-(4-(4-fluorobenzo[d]thiazol-2-yl)-6,7-dihydro-1H-imidazo[4,5-c]pyridin-5(4H)-yl)(2-(1-methyl-1H-pyrazol-4-yl)oxazol-5-yl)methanone] | 500 to 1000 nM |
| O=C(c1cnc(-c2ccc(C(F)(F)F)cn2)s1)N1CCc2[nH]cnc2[C@H]1c1nc2ccccc2s1 [Example 1349] | 1000 to 5000 nM |

The next lines start with the values.

| AC50 | Structure (SMILES) |
| --- | --- |
| 1000 to 5000 nM | Cc1cccc2nc([C@H]3c4nc[nH]c4CCN3C(=O)c3cncs3)sc12 [Example 1315, (R)-(4-(7-methylbenzo[d]thiazol-2-yl)-6,7-dihydro-1H-imidazo[4,5-c]pyridin-5(4H)-yl)(thiazol-5-yl)methanone] |
| < 500 nM | Cc1cccc2nc([C@@H]3c4nc[nH]c4CCN3C(=O)c3cncs3)sc12 [Example 1316, (S)-(4-(7-methylbenzo[d]thiazol-2-yl)-6,7-dihydro-1H-imidazo[4,5-c]pyridin-5(4H)-yl)(thiazol-5-yl)methanone] |
| < 500 nM | Cc1ncoc1C(=O)N1CCc2[nH]cnc2[C@H]1c1nc2c(F)cccc2s1 [Example 1319, (S)-(4-(4-fluorobenzo[d]thiazol-2-yl)-6,7-dihydro-1H-imidazo[4,5-c]pyridin-5(4H)-yl)(4-methyloxazol-5-yl)methanone] |
| 1000 to 5000 nM | Cc1ncoc1C(=O)N1CCc2[nH]cnc2[C@@H]1c1nc2c(F)cccc2s1 [Example 1320, (R)-(4-(4-fluorobenzo[d]thiazol-2-yl)-6,7-dihydro-1H-imidazo[4,5-c]pyridin-5(4H)-yl)(4-methyloxazol-5-yl)methanone] |
| < 500 nM | O=C(c1cnc(N2CCCC2)s1)N1CCc2[nH]cnc2[C@H]1c1nc2ccccc2s1 [Example 1323] |
| 1000 to 5000 nM | O=C(c1cnc(N2CCCC2)s1)N1CCc2[nH]cnc2[C@@H]1c1nc2ccccc2s1 [Example 1324, (R)-(4-(benzo[d]thiazol-2-yl)-6,7-dihydro-1H-imidazo[4,5-c]pyridin-5(4H)-yl)(2-(pyrrolidin-1-yl)thiazol-5-yl)methanone] |
| < 500 nM | O=C(c1ocnc1C(F)(F)F)N1CCc2[nH]cnc2[C@H]1c1nc2ccccc2s1 [Example 1325] |
| 500 to 1000 nM | O=C(c1ocnc1C(F)(F)F)N1CCc2[nH]cnc2[C@@H]1c1nc2ccccc2s1 [Example 1326, (R)-(4-(benzo[d]thiazol-2-yl)-6,7-dihydro-1H-imidazo[4,5-c]pyridin-5(4H)-yl)(4-(trifluoromethyl)oxazol-5-yl)methanone] |
| < 500 nM | O=C(c1ocnc1C1CC1)N1CCc2[nH]cnc2[C@H]1c1nc2ccccc2s1 [Example 1327] |
| 1000 to 5000 nM | O=C(c1ocnc1C1CC1)N1CCc2[nH]cnc2[C@@H]1c1nc2ccccc2s1 [Example 1328, (R)-(4-(benzo[d]thiazol-2-yl)-6,7-dihydro-1H-imidazo[4,5-c]pyridin-5(4H)-yl)(4-cyclopropyloxazol-5-yl)methanone] |
| 500 to 1000 nM | Cc1nnc(C(=O)N2CCc3[nH]cnc3[C@H]2c2nc3cccc(F)c3s2)s1 [Example 1331, (S)-(4-(7-fluorobenzo[d]thiazol-2-yl)-6,7-dihydro-1H-imidazo[4,5-c]pyridin-5(4H)-yl)(5-methyl-1,3,4-thiadiazol-2-yl)methanone] |
| 1000 to 5000 nM | Cc1nnc(C(=O)N2CCc3[nH]cnc3[C@@H]2c2nc3cccc(F)c3s2)s1 [Example 1332, (R)-(4-(7-fluorobenzo[d]thiazol-2-yl)-6,7-dihydro-1H-imidazo[4,5-c]pyridin-5(4H)-yl)(5-methyl-1,3,4-thiadiazol-2-yl)methanone] |
| < 500 nM | O=C(c1cnn2ccccc12)N1CCc2[nH]cnc2[C@H]1c1nc2cccc(Br)c2s1 [Example 1335, (S)-(4-(7-bromobenzo[d]thiazol-2-yl)-6,7-dihydro-1H-imidazo[4,5-c]pyridin-5(4H)-yl)(pyrazolo[1,5-a]pyridin-3-yl)methanone] |
| 1000 to 5000 nM | O=C(c1cnn2ccccc12)N1CCc2[nH]cnc2[C@@H]1c1nc2cccc(Br)c2s1 [Example 1336, (R)-(4-(7-bromobenzo[d]thiazol-2-yl)-6,7-dihydro-1H-imidazo[4,5-c]pyridin-5(4H)-yl)(pyrazolo[1,5-a]pyridin-3-yl)methanone] |
| < 500 nM | O=C(c1scnc1C(F)(F)F)N1CCc2[nH]cnc2[C@H]1c1nc2ccccc2s1 [Example 1341] |
| < 500 nM | O=C(c1scnc1C(F)(F)F)N1CCc2[nH]cnc2[C@@H]1c1nc2ccccc2s1 [Example 1342, (R)-(4-(benzo[d]thiazol-2-yl)-6,7-dihydro-1H-imidazo[4,5-c]pyridin-5(4H)-yl)(4-(trifluoromethyl)thiazol-5-yl)methanone] |
| < 500 nM | O=C(c1cnc(C(F)(F)F)o1)N1CCc2[nH]cnc2[C@H]1c1nc2ccccc2s1 [Example 1347] |
| 1000 to 5000 nM | O=C(c1cnc(C(F)(F)F)o1)N1CCc2[nH]cnc2[C@@H]1c1nc2ccccc2s1 [Example 1348, (R)-(4-(benzo[d]thiazol-2-yl)-6,7-dihydro-1H-imidazo[4,5-c]pyridin-5(4H)-yl)(2-(trifluoromethyl)oxazol-5-yl)methanone] |
